In brackets after ≈: the same amount, converted by molar mass. Non-standard residues stand in square brackets, D forms with d. Residues, ends and D or L forms follow the SMILES beside them. Orn = NCCC[C@H](N)C(=O)O
Key:
human erythrocytes = assay: Hemolytic activity; type: cell-based; details: 20 μM, 1 h, 37 °C, relative to H2O control = 100%, OD 540 nm or 570 nm, triplicate, mean
Method: Erythrocytes were isolated from the peripheral blood of healthy donors after incubation at 4 °C for 2–3 h. All the donors are males, 35–38 years old. All of them have approved to collect blood samples, and the authors have permissions filled. All the blood samples have been destroyed after the experiments finished. The red blood cell suspension (100 μL) was pelleted, washed twice with saline, then the pellet was resuspended in 500 μL saline or distilled water (positive control of hemolysis). The compounds were added (final concentration of 20 μM). The samples were incubated for 1 h at 37 °C and centrifuged at 2000 rpm for 1.5 min. The OD of supernatants was measured on a Multiscan spectrophotometer FC (Thermo Scientific, Waltham, MA, USA) at a wavelength of 540 nm. The percent hemolysis was calculated relative to the positive control, taken as 100%.
Erythrocytes were isolated from the human blood: On the day of the study, blood was taken from the donor’s cubital vein into a test tube with an anticoagulant. The blood was incubated at 4 °C for 2‒3 h. A suspension of erythrocytes (100 μL) was diluted with a physiological buffer (pH 7.2) to a total volume of 500 μL. Solutions of the test substances with an initial concentration of […] (DMSO) were diluted with a PBS buffer (1:10). The resulting solutions were introduced into Eppendorf tubes in the amounts required to create the studied concentration (5, 10, or 20 μM). A mixture of PBS with erythrocytes was added to a total volume of 200 μL. The control (C) was a mixture of erythrocytes with H2O (100% of hemolysis). The intact control solution (I) was a mixture of erythrocytes with the PBS and solvent (DMSO). The antibiotic gramicidin S (Gram S) was used as a control sample with active hemolysis. The mixture was incubated for 1 h at 37 °C. The measurement of the optical density of the supernatants was carried out on a BioTek ELx800 automatic microplate photometer (USA) at 570 nm. The optical density of the liquid above the sediment in the control sample with H2O was taken as 100%.

[1] = test system: Aspergillus niger ATCC 16404; assay: Disc-diffusion antifungal assay; type: cell-based; details: 40 µg/disc; A. niger ATCC 16404
A. niger 1133 m [2] = assay: Disc-diffusion antifungal assay; type: cell-based, Aspergillus niger; details: 40 µg/disc, pathogenic clinical isolate
A. fumigatus VKM F-37 [3] = assay: Disc-diffusion antifungal assay; type: cell-based, Aspergillus fumigatus; details: 40 µg/disc
A. fumigatus 390 m [4] = assay: Disc-diffusion antifungal assay; type: cell-based, Aspergillus fumigatus; details: 40 µg/disc, pathogenic clinical isolate
A. terreus 3 K [5] = assay: Disc-diffusion antifungal assay; type: cell-based; details: 40 µg/disc
A. terreus 497 [6] = assay: Disc-diffusion antifungal assay; type: cell-based; details: 40 µg/disc; A. terreus 497, pathogenic clinical isolate
[7] = test system: reference and clinical strains of Aspergillus; assay: Disc-diffusion antifungal assay, Aspergillus strains; type: cell-based; details: disc-diffusion, reference and clinical strains of Aspergillus
A. niger ATCC 16404 = assay: Broth two-fold microdilution MIC (CLSI); type: cell-based, Aspergillus niger; details: A. niger ATCC 16404; RPMI 1640 pH 7.0, 35 °C, 48 h, no visible growth
A. niger 1133 m [8] = assay: Broth two-fold microdilution MIC (CLSI); type: cell-based, Aspergillus niger; details: A. niger 1133 m clinical isolate; RPMI 1640 pH 7.0, 35 °C, 48 h
A. terreus 3 K [9] = assay: Broth two-fold microdilution MIC (CLSI); type: cell-based; details: A. terreus 3 K; RPMI 1640 pH 7.0, 35 °C, 48 h
A. terreus 497 [10] = assay: Broth two-fold microdilution MIC (CLSI); type: cell-based; details: A. terreus 497 clinical isolate; RPMI 1640 pH 7.0, 35 °C, 48 h
A. fumigatus VKM F-37 [11] = assay: Broth two-fold microdilution MIC (CLSI); type: cell-based, Aspergillus fumigatus; details: A. fumigatus VKM F-37; RPMI 1640 pH 7.0, 35 °C, 48 h
A. fumigatus 390 m [12] = assay: Broth two-fold microdilution MIC (CLSI); type: cell-based, Aspergillus fumigatus; details: A. fumigatus 390 m clinical isolate; RPMI 1640 pH 7.0, 35 °C, 48 h
[13] = test system: isolates of Aspergillus spp.; assay: Broth microdilution MIC, ranges over mould isolates; type: cell-based; details: range over opportunistic and clinical isolates of Aspergillus spp. (Table 4)
Candida albicans 1402 [14] = assay: Broth microdilution MIC and MFC (CLSI); type: cell-based
C. glabrata 1402 [15] = assay: Broth microdilution MIC and MFC (CLSI); type: cell-based; details: Nakaseomyces glabratus
C. krusei 1447 [16] = assay: Broth microdilution MIC and MFC (CLSI); type: cell-based; details: Pichia kudriavzevii
C. tropicalis 156 [17] = assay: Broth microdilution MIC and MFC (CLSI); type: cell-based; details: Candida tropicalis
C. parapsilosis 571 [18] = assay: Broth microdilution MIC and MFC (CLSI); type: cell-based; details: Lodderomyces parapsilosis
[19] = test system: Cryptococcus neoformans 297; assay: Broth microdilution MIC and MFC (CLSI); type: cell-based; details: Cryptococcus neoformans 297 clinical isolate; RPMI 1640 pH 7.0, 35 °C, 24 h; read-out: MIC
C. laurentii 325m = assay: Broth microdilution MIC and MFC (CLSI); type: cell-based, Cr. laurentii; details: Papiliotrema laurentii; C. laurentii 325m clinical isolate; RPMI 1640 pH 7.0, 35 °C, 24 h; read-out: MIC
Aspergillus niger 1133m = assay: Sensititre YeastOne antifungal susceptibility test; type: cell-based; details: Aspergillus niger, 1133M
A. fumigatus 390m = assay: Sensititre YeastOne antifungal susceptibility test; type: cell-based; details: Aspergillus fumigatus, 390M
A. terreus 497 [20] = assay: Sensititre YeastOne antifungal susceptibility test; type: cell-based; details: Aspergillus terreus, 497
Candida albicans 1402 [21] = assay: Sensititre YeastOne antifungal susceptibility test; type: cell-based; details: Candida albicans, 1402
C. glabrata 1402 [22] = assay: Sensititre YeastOne antifungal susceptibility test; type: cell-based; details: Nakaseomyces glabratus, 1402
C. krusei 1447 [23] = assay: Sensititre YeastOne antifungal susceptibility test; type: cell-based; details: Pichia kudriavzevii, 1447
C. tropicalis 156 [24] = assay: Sensititre YeastOne antifungal susceptibility test; type: cell-based; details: Candida tropicalis, 156
C. parapsilosis 571 [25] = assay: Sensititre YeastOne antifungal susceptibility test; type: cell-based; details: Lodderomyces parapsilosis, 571
[26] = test system: Cryptococcus neoformans 297; assay: Sensititre YeastOne antifungal susceptibility test; type: cell-based; details: Cryptococcus neoformans, 297
Cr. laurentii 325m = assay: Sensititre YeastOne antifungal susceptibility test; type: cell-based; details: Papiliotrema laurentii, 325M

With `CC(C)C[C@@H]1NC(=O)[C@H](CCCN)NC(=O)[C@H](C(C)C)NC(=O)[C@@H]2CCCN2C(=O)[C@@H](Cc2ccccc2)NC(=O)[C@H](CC(C)C)NC(=O)[C@H](CCCN)NC(=O)[C@H](C(C)C)NC(=O)[C@@H]2CCCN2C(=O)[C@@H](Cc2ccccc2)NC1=O` [gramicidin S] (cyclo(L[dF]PV[Orn]L[dF]PV[Orn])) the hemolysis (human erythrocytes) was 100%.

With “Methyldecanoyl-MePro-AHMOD-Ala-Iva-Ile-Iva-βAla-Alaol-Glyol [EmiD, emericellipsin D, homologue of emericellipsin A, nonribosomal peptaibol]” the “Zone of Inhibition” value [1] was 0 mm, the “Zone of Inhibition” value (A. niger 1133 m [2]) was 0 mm and the “Zone of Inhibition” value (A. fumigatus VKM F-37 [3]) was 0 mm. For the same compound, the “Zone of Inhibition” value (A. fumigatus 390 m [4]) was 0 mm, the “Zone of Inhibition” value (A. terreus 3 K [5]) was 0 mm and the “Zone of Inhibition” value (A. terreus 497 [6]) was 0 mm. For the same compound, the “antifungal activity against Aspergillus strains (in words)” value [7] was “totally inactive”, the “Minimal Inhibitory Concentration (MIC)” value (A. niger ATCC 16404) was “˃64 µg/mL” and the “Minimal Inhibitory Concentration (MIC)” value (A. niger 1133 m [8]) was “˃64 µg/mL”. For the same compound, the “Minimal Inhibitory Concentration (MIC)” value (A. terreus 3 K [9]) was 16 µg/mL, the “Minimal Inhibitory Concentration (MIC)” value (A. terreus 497 [10]) was 16 µg/mL and the “Minimal Inhibitory Concentration (MIC)” value (A. fumigatus VKM F-37 [11]) was 32 µg/mL. For the same compound, the “Minimal Inhibitory Concentration (MIC)” value (A. fumigatus 390 m [12]) was 32 µg/mL and the MIC range [13] was 16 to 32 µg/mL.

For `CC[C@H](C)C[C@H](C)CCCCCCCCC(=O)N[C@H]1C[C@@H](O)[C@@H](NCCN)NC(=O)[C@@H]2[C@@H](O)CCN2C(=O)[C@H]([C@H](O)CCN)NC(=O)[C@H]([C@H](O)[C@@H](O)c2ccc(O)cc2)NC(=O)[C@@H]2C[C@@H](O)CN2C(=O)[C@H]([C@@H](C)O)NC1=O` [CAS, Caspofungin], the MFC (Candida albicans 1402 [14]; Candida albicans 1402, lowest concentration causing 95% death, plated on PDA agar, read-out: MFC) was 0.5 µg/mL (≈ 0.457 µM), the MIC (Candida albicans 1402 [14]; Candida albicans 1402 clinical isolate, RPMI 1640 pH 7.0, 35 °C, 24 h, read-out: MIC) was 0.06 µg/mL (≈ 0.0549 µM) and the MFC (C. glabrata 1402 [15]; C. glabrata 1402, lowest concentration causing 95% death, read-out: MFC) was 0.5 µg/mL (≈ 0.457 µM). It also gave an MIC (C. glabrata 1402 [15]; C. glabrata 1402 clinical isolate, RPMI 1640 pH 7.0, 35 °C, 24 h, read-out: MIC) of 0.06 µg/mL (≈ 0.0549 µM), an MFC (C. krusei 1447 [16]; C. krusei 1447, lowest concentration causing 95% death, read-out: MFC) of 1 µg/mL (≈ 0.915 µM) and an MIC (C. krusei 1447 [16]; C. krusei 1447 clinical isolate, RPMI 1640 pH 7.0, 35 °C, 24 h, read-out: MIC) of 0.25 µg/mL (≈ 0.229 µM). The MFC (C. tropicalis 156 [17]; C. tropicalis 156, lowest concentration causing 95% death, read-out: MFC) was 0.5 µg/mL (≈ 0.457 µM), the MIC (C. tropicalis 156 [17]; C. tropicalis 156 clinical isolate, RPMI 1640 pH 7.0, 35 °C, 24 h, read-out: MIC) was 0.06 µg/mL (≈ 0.0549 µM) and the MFC (C. parapsilosis 571 [18]; C. parapsilosis 571, lowest concentration causing 95% death, read-out: MFC) was 1 µg/mL (≈ 0.915 µM). It also gave an MIC (C. parapsilosis 571 [18]; C. parapsilosis 571 clinical isolate, RPMI 1640 pH 7.0, 35 °C, 24 h, read-out: MIC) of 1 µg/mL (≈ 0.915 µM), an MIC [19] of over 64 µg/mL and an MIC (C. laurentii 325m) of 16 µg/mL (≈ 14.6 µM). It also gave an MIC (Aspergillus niger 1133m) of over 16 µg/mL, an MIC (A. fumigatus 390m) of over 16 µg/mL and an MIC (A. terreus 497 [20]) of over 16 µg/mL. It also gave an MIC (Candida albicans 1402 [21]) of 0.06 µg/mL (≈ 0.0549 µM), an MIC (C. glabrata 1402 [22]) of 0.06 µg/mL (≈ 0.0549 µM) and an MIC (C. krusei 1447 [23]) of 0.25 µg/mL (≈ 0.229 µM). It also gave an MIC (C. tropicalis 156 [24]) of 0.06 µg/mL (≈ 0.0549 µM), an MIC (C. parapsilosis 571 [25]) of 1 µg/mL (≈ 0.915 µM) and an MIC [26] of 16 µg/mL (≈ 14.6 µM). For the same compound, the MIC (Cr. laurentii 325m) was 16 µg/mL (≈ 14.6 µM).
